Data published in patent publication US7485259B2, “Organic compound and metal ion synergistic disinfection and purification system and method of manufacture” (priority 2003, dated 2009).

Columns and labels:
[1] = after 60 days; cited from earlier work
Klebsiella terrigena = assay: Disinfection of seeded test waters, log reduction of Klebsiella; conditions: seeded municipal water
MS2 = conditions: in 12 hours; cited from earlier work
poliovirus = conditions: in 12 hours; cited from earlier work
[2] = tested on: L. pneumophila serogroup 1; conditions: ion used alone; cited from earlier work
MS2 bacteriophage = assay: Disinfection of seeded test waters, log reduction of MS2 virus; conditions: contact up to 24 hours

Compound	share of initial input detectable in the test chambers [1] [%]	log reduction of Klebsiella (Klebsiella terrigena; 60 minute contact time)	log reduction of Klebsiella (Klebsiella terrigena; 240 minutes contact time)	log inactivation of MS2 (MS2) [log]	log inactivation of poliovirus (poliovirus) [log]	contact time to achieve complete (6 log) inactivation of Legionella [2] [hours]	reduction of MS2 virus (MS2 bacteriophage; seeded municipal water)	reduction of MS2 virus (MS2 bacteriophage; seeded untreated natural waters)
[Cu+2] [copper ions]	75	less than 3 log	less than 5 log	4.0	1.3	2.5	–	–
silver ions	44	5 log	–	–	–	24	No effective reduction	No effective reduction
